Laboratory results taken from ChEMBL document CHEMBL3886463, “Triazolopyridine compounds” (2016).

Target: cAMP and cAMP-inhibited cGMP 3',5'-cyclic phosphodiesterase 10A (Homo sapiens, UniProt Q9Y233)
Test: Inhibition Assay: The human PDE10A full length assay was performed in 96-well micro titer plates. The reaction mixture of 50 ul contained 20 mM HEPES pH=7.5/10 mM MgCl2/0.05 mg/ml BSA (Sigma cat. # A-7906), 50 nM cGMP (Sigma, cat. # G6129) and 50 nM [3H]-cGMP (GE Healthcare, cat. # TRK392 S.A. 13.2 Ci/mmol), 3.75 ng/well PDE10A enzyme (Enzo Life Science, Lausen, Switzerland cat # SE-534) with or without a specific test compound. A range of concentrations of the potential inhibitor was used to generate data for calculating the concentration of inhibitor resulting in 50% of the effect (e.g. IC50, the concentration of the competitor inhibiting PDE10A activity by 50%). Non-specific activity was tested without the enzyme. The reaction was initiated by the addition of the substrate solution (cGMP and [3H]-cGMP) and allowed to progress for 20 minutes at room temperature. The reaction was terminated by adding 25 ul of YSi-SPA scintillation beads (GE Healthcare, cat. # RPNQ0150) in 18 mM zinc sulphate.

cAMP and cAMP-inhibited cGMP 3',5'-cyclic phosphodiesterase 10A, sequence (Q9Y233 whole entry): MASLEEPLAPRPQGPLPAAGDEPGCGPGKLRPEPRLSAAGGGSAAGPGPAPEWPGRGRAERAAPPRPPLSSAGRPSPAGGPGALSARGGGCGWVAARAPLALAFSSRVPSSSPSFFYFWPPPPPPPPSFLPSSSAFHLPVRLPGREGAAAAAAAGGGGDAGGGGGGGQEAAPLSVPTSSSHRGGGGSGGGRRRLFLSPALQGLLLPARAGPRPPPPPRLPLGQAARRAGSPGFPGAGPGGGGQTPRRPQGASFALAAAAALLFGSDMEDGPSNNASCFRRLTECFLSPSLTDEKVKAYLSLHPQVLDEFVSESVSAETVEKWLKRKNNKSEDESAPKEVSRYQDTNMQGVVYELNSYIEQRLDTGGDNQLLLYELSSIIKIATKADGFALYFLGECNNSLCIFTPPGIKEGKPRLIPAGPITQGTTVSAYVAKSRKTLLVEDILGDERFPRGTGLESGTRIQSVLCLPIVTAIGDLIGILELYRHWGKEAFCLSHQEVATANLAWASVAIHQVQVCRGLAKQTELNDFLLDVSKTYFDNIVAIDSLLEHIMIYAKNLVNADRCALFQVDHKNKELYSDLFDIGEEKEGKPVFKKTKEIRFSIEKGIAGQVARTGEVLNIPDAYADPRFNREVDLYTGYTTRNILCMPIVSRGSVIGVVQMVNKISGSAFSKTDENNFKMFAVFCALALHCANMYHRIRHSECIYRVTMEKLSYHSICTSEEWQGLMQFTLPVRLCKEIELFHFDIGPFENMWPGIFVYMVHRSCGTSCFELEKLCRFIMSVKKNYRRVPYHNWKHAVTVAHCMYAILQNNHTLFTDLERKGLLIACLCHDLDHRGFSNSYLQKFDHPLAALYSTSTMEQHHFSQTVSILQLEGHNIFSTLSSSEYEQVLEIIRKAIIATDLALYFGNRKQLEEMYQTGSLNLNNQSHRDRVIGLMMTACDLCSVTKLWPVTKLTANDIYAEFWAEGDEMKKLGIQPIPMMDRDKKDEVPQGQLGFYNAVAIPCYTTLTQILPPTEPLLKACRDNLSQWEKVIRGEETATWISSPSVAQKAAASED

Row | IC50 [nM] | Structure (SMILES)
1 | 3.3 | CCN(CC)c1nc2ccc(NC(=O)c3c(C(=O)N4CCCC4)cnn3C)cn2n1
2 | 23.1 | Cn1ncc(C(=O)N2CCC2)c1C(=O)Nc1ccc2nc(N3CCOCC3)nn2c1
